What was measured:
Androgen receptor [1] = molecular target: T1, Androgen receptor (Homo sapiens, UniProt P10275); assay: Inhibition of Androgen receptor (unknown origin)
T1 sequence (P10275 whole entry): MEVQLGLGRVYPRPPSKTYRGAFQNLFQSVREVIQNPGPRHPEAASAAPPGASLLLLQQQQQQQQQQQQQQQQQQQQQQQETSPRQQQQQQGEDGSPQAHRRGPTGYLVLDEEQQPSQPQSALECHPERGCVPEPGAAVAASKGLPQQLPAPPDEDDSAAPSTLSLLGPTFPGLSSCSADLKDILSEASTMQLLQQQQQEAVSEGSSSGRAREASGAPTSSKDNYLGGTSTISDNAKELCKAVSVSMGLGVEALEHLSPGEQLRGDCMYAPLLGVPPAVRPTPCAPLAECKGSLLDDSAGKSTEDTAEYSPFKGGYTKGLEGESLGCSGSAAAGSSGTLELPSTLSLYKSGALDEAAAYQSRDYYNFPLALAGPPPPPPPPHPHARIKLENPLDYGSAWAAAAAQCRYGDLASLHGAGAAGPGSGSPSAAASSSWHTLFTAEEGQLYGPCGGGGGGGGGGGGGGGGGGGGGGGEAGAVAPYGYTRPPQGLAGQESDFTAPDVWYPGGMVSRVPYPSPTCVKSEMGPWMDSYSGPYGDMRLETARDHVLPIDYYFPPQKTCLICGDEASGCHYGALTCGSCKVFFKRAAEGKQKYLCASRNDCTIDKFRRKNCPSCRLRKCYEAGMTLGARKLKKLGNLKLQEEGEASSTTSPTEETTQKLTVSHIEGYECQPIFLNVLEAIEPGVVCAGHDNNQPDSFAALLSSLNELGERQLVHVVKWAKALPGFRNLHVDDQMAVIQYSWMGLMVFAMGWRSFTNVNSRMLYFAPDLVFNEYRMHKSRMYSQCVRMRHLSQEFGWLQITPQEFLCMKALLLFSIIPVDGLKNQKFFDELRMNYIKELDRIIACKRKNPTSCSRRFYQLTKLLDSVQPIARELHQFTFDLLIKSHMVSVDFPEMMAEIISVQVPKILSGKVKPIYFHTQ

LNCaP [2] = assay: Antitumor activity against human LNCaP cells xenografted in nude mouse assessed as decrease in tumor weight at 40 mg/kg via oral gavage for six days weekly for 70 days relative to control; type: functional; parameters: scale not given: the % may be the effect or the level left; details: time 70 day
LNCaP [3] = assay: Antitumor activity against human LNCap cells xenografted in NSG mouse assessed as tumor growth inhibition at 100 mg/kg, sc relative to control; type: functional; details: read-out: TGI
in vitro = details: mouse, liver microsomes
Description: Metabolic stability in mouse liver microsomes assessed as half life by LC-MS/MS analysis

[4] = molecular target: T2, von Hippel-Lindau disease tumor suppressor/Androgen receptor (Homo sapiens, UniProt P10275+P40337); assay: PROTAC activity at VHL/AR-V7 in human 22Rv1 cells assessed as induction of AR-V7 degradation incubated for 24 hrs by immunoblot assay; type: cell-based
Target sequence in this assay (P40337 whole entry, looked up, change not shown, one chain of several): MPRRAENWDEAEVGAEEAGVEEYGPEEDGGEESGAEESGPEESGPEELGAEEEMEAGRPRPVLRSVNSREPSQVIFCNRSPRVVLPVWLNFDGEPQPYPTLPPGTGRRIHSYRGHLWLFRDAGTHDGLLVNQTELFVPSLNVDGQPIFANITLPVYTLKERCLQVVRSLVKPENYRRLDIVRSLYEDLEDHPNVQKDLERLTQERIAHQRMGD

[5] = molecular target: T2, von Hippel-Lindau disease tumor suppressor/Androgen receptor; assay: PROTAC activity at VHL/full length AR in human 22Rv1 cells assessed as induction of AR degradation incubated for 24 hrs by immunoblot assay; type: cell-based
Target sequence in this assay (P40337 whole entry, one chain of several): as the sequence (P40337 whole entry, looked up, change not shown, one chain of several) above

Androgen receptor [6] = molecular target: T1, Androgen receptor; assay: Induction of degradation of AR LBD in human LNCaP cells; type: cell-based
Androgen receptor [7] = molecular target: T1, Androgen receptor; assay: Inhibition of AR LBD in human LNCaP cells; type: cell-based
[8] = Downregulation of AR level in human LNCaP cells at 10 uM by Western blot analysis relative to control; type: functional
[9] = Downregulation of AR level in human CWR22Rv cells at 10 uM by Western blot analysis relative to control; type: functional
[10] = Downregulation of AR-Vs level in human LNCaP cells at 10 uM by Western blot analysis relative to control; type: functional
[11] = Downregulation of AR-Vs level in human CWR22Rv cells at 10 uM by Western blot analysis relative to control; type: functional
[12] = Antitumor activity in human CWR22rv cells xenografted NOD.CB17-PrkdcSCID/J mouse model assessed as inhibition of tumor growth at 10 mg/kg, ip relative to control; type: functional; parameters: scale not given: the % may be the effect or the level left
LNCaP [13] = assay: Antiproliferative activity against human LNCap cells incubated for 168 hrs by […] assay; type: functional, cell-based
VCaP = assay: Antiproliferative activity against human VCaP cells incubated for 168 hrs by […] assay; type: functional, cell-based
LNCaP [14] = assay: Antiproliferative activity against human LNCAP cells assessed as reduction in cell viability; type: functional, cell-based
CWR22R [15] = assay: Antiproliferative activity against human 22Rv1 cells assessed as reduction in cell viability; type: functional, cell-based
[16] = molecular target: Protein cereblon/Androgen receptor (Homo sapiens, UniProt P10275+Q96SW2); assay: Protac activity at CRBN/Androgen receptor in human LNCaP cells assessed as Androgen receptor degradation incubated for 24 hrs; type: cell-based
CWR22R [17] = assay: Antitumor activity against human 22Rv1 cells xenografted in BALB/c nude mouse assessed as reduction in tumor volume at 10 mg/kg administered daily by vernier caliper method relative control; type: functional; parameters: scale not given: the % may be the effect or the level left
LNCaP C4-2B [18] = assay: Antiproliferative activity against human C4-2B cells; type: functional, cell-based
PC-3 [19] = assay: Antitumor activity against human PC-3 cells xenografted in mouse assessed as reduction in tumor at 50 mg/kg in presence of bicalutamide relative to control; type: functional; parameters: scale not given: the % may be the effect or the level left
LNCaP [20] = assay: Antiproliferative activity against human LNCap cells; type: functional, cell-based
CWR22R [21] = assay: Antiproliferative activity against human 22Rv1 cells; type: functional, cell-based
LNCaP C4-2B [22] = assay: Antiproliferative activity against human LNCaP C4-2B cells; type: functional, cell-based
PC-3 [23] = assay: Antiproliferative activity against human PC-3 cells; type: functional, cell-based
CWR22R [24] = assay: Antitumor activity against human 22rv1 cells xenografted in mouse assessed as suppression of tumor growth at 100 mg/kg, po administered daily for 25 days relative to control; type: functional; details: time 25 day
[25] = molecular target: T3, Steroid 17-alpha-hydroxylase/17,20 lyase (Homo sapiens, UniProt P05093); assay: Inhibition of CYP17AI in human LNCaP cells; type: ADME, cell-based
T3 sequence (P05093 whole entry): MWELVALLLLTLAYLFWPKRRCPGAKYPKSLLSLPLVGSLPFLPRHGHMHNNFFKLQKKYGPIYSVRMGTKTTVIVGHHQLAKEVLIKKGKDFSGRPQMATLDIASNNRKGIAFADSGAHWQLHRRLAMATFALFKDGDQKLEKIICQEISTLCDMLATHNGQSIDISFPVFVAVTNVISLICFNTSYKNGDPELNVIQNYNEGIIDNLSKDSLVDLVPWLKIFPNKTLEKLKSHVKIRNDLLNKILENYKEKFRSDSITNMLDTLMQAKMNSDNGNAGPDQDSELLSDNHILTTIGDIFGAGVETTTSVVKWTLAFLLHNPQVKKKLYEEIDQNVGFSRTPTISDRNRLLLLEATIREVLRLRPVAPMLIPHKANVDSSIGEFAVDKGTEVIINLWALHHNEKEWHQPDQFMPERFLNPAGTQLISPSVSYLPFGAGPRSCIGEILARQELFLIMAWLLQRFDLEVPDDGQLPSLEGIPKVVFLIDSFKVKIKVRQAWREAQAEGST

[26] = molecular target: T3, Steroid 17-alpha-hydroxylase/17,20 lyase; assay: Inhibition of CYP17AI in human 22Rv1 cells; type: ADME, cell-based
CWR22R [27] = assay: Antiproliferative activity against human 22Rv1 cells incubated for 24 hrs by CCK-8 assay; type: functional, cell-based; details: 22Rv1, 24 h
LNCaP C4-2 = assay: Antiproliferative activity against human C4-2 cells incubated for 24 hrs by CCK-8 assay; type: functional, cell-based; details: LNCaP C4-2, 24 h
DU-145 = assay: Antiproliferative activity against human DU-145 cells incubated for 24 hrs by CCK-8 assay; type: functional, cell-based; details: DU-145, 24 h
PC-3 [28] = assay: Antiproliferative activity against human PC-3 cells incubated for 24 hrs by CCK-8 assay; type: functional, cell-based; details: PC-3, 24 h

Chain of Protein cereblon/Androgen receptor (Q96SW2 whole entry, one chain of several): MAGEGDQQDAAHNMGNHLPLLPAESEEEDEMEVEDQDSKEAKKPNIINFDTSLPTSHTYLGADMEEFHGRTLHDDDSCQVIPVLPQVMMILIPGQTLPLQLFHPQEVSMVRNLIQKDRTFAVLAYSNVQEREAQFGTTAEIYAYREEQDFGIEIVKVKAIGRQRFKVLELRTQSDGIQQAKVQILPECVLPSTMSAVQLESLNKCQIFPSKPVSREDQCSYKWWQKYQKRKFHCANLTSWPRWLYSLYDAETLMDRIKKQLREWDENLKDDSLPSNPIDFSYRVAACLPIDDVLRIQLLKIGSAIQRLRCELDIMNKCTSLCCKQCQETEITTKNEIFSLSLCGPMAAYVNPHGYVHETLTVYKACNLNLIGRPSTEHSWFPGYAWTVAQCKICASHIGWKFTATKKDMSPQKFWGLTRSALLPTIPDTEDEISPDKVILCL

## Clc1ccc(-c2cnc3n2CCC3)cc1
Androgen receptor [1]
  IC50: 4.3 µM

## CC(C)=CCC[C@](C)(O)[C@H]1CC[C@]2(C)[C@@H]1[C@H](O)C[C@@H]1[C@@]3(C)CC[C@H](O)C(C)(C)[C@@H]3CC[C@]12C
LNCaP [2]
  Activity: 32.6%

## C[C@](O)(Cn1ccc2cc(F)ccc21)C(=O)Nc1ccc(C#N)c(C(F)(F)F)c1
LNCaP [3]
  inhibition in vivo at 100 mg/kg: 65%

## CN(C[C@](C)(O)C(=O)Nc1ccc(C#N)c(C(F)(F)F)c1)c1ccc(C#N)c(-c2ccccc2)c1
In vitro
  half-life: 1 min

## Cc1ncsc1-c1ccc([C@H](C)NC(=O)[C@@H]2C[C@@H](O)CN2C(=O)[C@@H](NC(=O)CCCCNC(=O)COc2c(-c3csc(N4CCOCC4)n3)ccc(F)c2F)C(C)(C)C)cc1
[4]
  EC50: 0.37 µM
[5]
  EC50: 2 µM

## CC1(C)C(=O)N(c2ccc(C#N)c(C(F)(F)F)c2)C(=S)N1CCCC(=O)NCCOCCOC(=O)CC12CC3CC(CC(C3)C1)C2
Androgen receptor [6]
  EC50: 1 µM
Androgen receptor [7]
  IC50: 0.156 µM

## CCOc1ccc2c(c1OC(C)C)CCN(c1ccc(C(=O)Nc3cccc(C)n3)cn1)C2
[8]
  Activity: >90%
[9]
  Activity: >90%
[10]
  Activity: >90%
[11]
  Activity: >90%
[12]
  Activity: 65%

## CC1(C)C(=O)N(c2ccc(C#N)c(C(F)(F)F)c2)C(=S)N1CCCCOc1cccc2c1C(=O)N(C1CCC(=O)NC1=O)C2=O (configuration not stated)
LNCaP [13]
  IC50: 3.07 µM
VCaP
  IC50: 0.127 µM

## CC1(C)CC(NC(=O)[C@H](Cc2ccc(OCc3c(Cl)cccc3Cl)cc2)NC(=O)/C(=C\c2ccccc2)c2ccccc2)CC(C)(C)N1
LNCaP [14]
  IC50: 3 µM
CWR22R [15]
  IC50: 2.6 µM

## CC(O)(COc1ccc(OCCOCCOc2cccc3c2C(=O)N(C2CCC(=O)NC2=O)C3=O)cc1)C(=O)Nc1ccc(C#N)c(I)c1 (configuration not stated)
[16]
  EC50: 5.21 µM

## COc1ccc(-n2nc3ccc(NC(=O)CO[N+](=O)[O-])cc3n2)cc1
CWR22R [17]
  Activity: 82%

## COc1ccc(C(=O)n2c(C)cc3cc(Cl)ccc32)cc1
LNCaP C4-2B [18]
  IC50: 1.09 µM

## C[C@H]1[C@H](OC(=O)CCC(=O)O)O[C@@H]2O[C@@]3(C)CC[C@H]4[C@H](C)CC[C@@H]1[C@@]24OO3 [ARTESUNATE]
PC-3 [19]
  Activity: >95%

## COc1ccc2cc3[n+](cc2c1OC)CCc1cc2c(cc1-3)OCO2 [BERBERINE]
LNCaP [20]
  IC50: 3.4 µM
CWR22R [21]
  IC50: 12.7 µM
LNCaP C4-2B [22]
  IC50: 11.2 µM
PC-3 [23]
  IC50: 21.5 µM

## CC(C)c1cc2c(c(O)c1O)[C@@]1(C(=O)O)CCCC(C)(C)[C@@H]1CC2 [CARNOSIC ACID]
CWR22R [24]
  Activity: 53%

## C[C@]12CC[C@H](O)CC1=CC[C@@H]1[C@@H]2CC[C@]2(C)C(n3cnc4ccccc43)=CC[C@@H]12 [GALETERONE]
[25]
  IC50: 3.55 µM
[26]
  IC50: 0.0122 µM

## COc1ccc(-c2cc(=O)c3c(OC)c(OC)c(OC)c(OC)c3o2)cc1OC [NOBILETIN]
CWR22R [27]
  IC50: 36.5 µM
LNCaP C4-2
  IC50: 30.3 µM
DU-145
  IC50: 144 µM
PC-3 [28]
  IC50: 123 µM

— ChEMBL document CHEMBL5236610, “A Comprehensive Overview of Small-Molecule Androgen Receptor Degraders: Recent Progress and Future Perspectives” (J Med Chem, 2022)
